Source: US9586948B2, “Inhibitors of IRAK4 activity” (MERCK SHARP & DOHME CORP., priority 2012, dated 2017)

Target: GST tagged IRAK4 (Homo sapiens (Human), UniProt Q9NWZ3)
Test: Determination of IRAK4 kinase activity (IMAP fluorescence polarization)
Assay type: biochemical
Conditions: 0.5 nM GST tagged IRAK4, 100 nM fluorescent peptide substrate RP7030, 100 μM ATP, 30 minutes at 25° C.
Procedure: The kinase activity of IRAK4 is determined by its ability to catalyze the phosphorylation of a fluorescent polypeptide substrate. The extent of phosphorylation is measured using IMAP technology (Molecular Devices) where the phosphorylated fluorescent substrate binds to the large M(III)-based nanoparticles which reduces the rotational speed of the substrate and thus increases its fluorescent polarization (FP).
Procedure: A 20 μl reaction mixture contains 10 mM TriHCl, pH 7.2, 0.5 nM GST tagged IRAK4 (SignalChem), 100 nM fluorescent peptide substrate (RP7030, Molecular Devices), 100 μM ATP, 1 mM DTT, 1 mM MgCl2, and 0.01% Tween 20. The reaction is initiated by the addition of ATP. After incubation for 30 minutes at 25° C., 60 μl of Progressive IMAP Reagent (Molecular Devices) is added to stop the reaction. Change in RP7030's FP is determined by a FP reader (Analyst HT, LJL BioSystems).

Chain of GST tagged IRAK4 (Q9NWZ3 whole entry): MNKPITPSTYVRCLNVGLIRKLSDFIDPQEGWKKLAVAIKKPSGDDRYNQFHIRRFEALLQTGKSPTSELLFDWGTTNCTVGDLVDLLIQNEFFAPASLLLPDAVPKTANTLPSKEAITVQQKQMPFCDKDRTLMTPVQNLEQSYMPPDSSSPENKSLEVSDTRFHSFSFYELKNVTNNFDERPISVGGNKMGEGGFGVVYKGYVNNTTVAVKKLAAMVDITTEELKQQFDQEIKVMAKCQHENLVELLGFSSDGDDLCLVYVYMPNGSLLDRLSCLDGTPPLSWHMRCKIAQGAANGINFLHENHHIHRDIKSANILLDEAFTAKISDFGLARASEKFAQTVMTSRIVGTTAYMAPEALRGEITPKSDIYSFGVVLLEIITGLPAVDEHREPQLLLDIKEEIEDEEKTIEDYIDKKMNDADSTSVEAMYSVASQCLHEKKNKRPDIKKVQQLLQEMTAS

Row | SMILES | IC50 [nM]
1 | CN1CCN(C(=O)c2nn(C)cc2NC(=O)c2cccc(-c3ccnc(NCC4CC4)c3)n2)CC1 [Example 39, 2′-((cyclopropylmethyl)amino)-N-(1-methyl-3-(4-methylpiperazine-1-carbonyl)-1H-pyrazol-4-yl)-[2,4′-bipyridine]-6-carboxamide] | 2910
2 | CN(C)CCCNC(=O)c1nn(C)cc1NC(=O)c1cccc(-c2ccnc(NCC3CC3)c2)n1 [Example 40, 2′-((cyclopropylmethyl)amino)-N-(3-((3-(dimethylamino)propyl)carbamoyl)-1-methyl-1H-pyrazol-4-yl)-[2,4′-bipyridine]-6-carboxamide] | 535
3 | Cn1cc(NC(=O)c2cccc(-c3ccnc(NCC4CC4)c3)n2)c(C(=O)N2CC(CN)C2)n1 [Example 42, N-(3-(3-(aminomethyl)azetidine-1-carbonyl)-1-methyl-1H-pyrazol-4-yl)-2′-((cyclopropylmethyl)amino)-[2,4′-bipyridine]-6-carboxamide] | 190
4 | Cn1cc(NC(=O)c2cccc(-c3ccnc(NCC4CC4)c3)n2)c(C(=O)Nc2cncnc2)n1 [Example 43, 2′-((cyclopropylmethyl)amino)-N-(1-methyl-3-(pyrimidin-5-ylcarbamoyl)-1H-pyrazol-4-yl)-[2,4′-bipyridine]-6-carboxamide] | 1580
5 | Cn1cc(NC(=O)c2cccc(-c3ccnc(NCC4CC4)c3)n2)c(C(=O)NCCc2cnccn2)n1 [Example 44, 2′-((cyclopropylmethyl)amino)-N-(1-methyl-3-((2-(pyrazin-2-yl)ethyl)carbamoyl)-1H-pyrazol-4-yl)-[2,4′-bipyridine]-6-carboxamide] | 2670
6 | Cn1cc(NC(=O)c2cccc(-c3ccnc(NCC4CC4)c3)n2)c(C(=O)NCC2CCS(=O)(=O)C2)n1 (stereo not drawn) [Example 45, 2′-((cyclopropylmethyl)amino)-N-(3-(((1,1-dioxidotetrahydrothiophen-3-yl)methyl)carbamoyl)-1-methyl-1H-pyrazol-4-yl)-[2,4′-bipyridine]-6-carboxamide] | 3620
7 | CN(C)[C@H]1CN(C(=O)c2nn(C)cc2NC(=O)c2cccc(-c3ccnc(NCC4CC4)c3)n2)C[C@@H]1O [Example 46, 2′-((cyclopropylmethyl)amino)-N-(3-((3S,4S)-3-(dimethylamino)-4-hydroxypyrrolidine-1-carbonyl)-1-methyl-1H-pyrazol-4-yl)-[2,4′-bipyridine]-6-carboxamide] | 186
8 | Cn1cc(NC(=O)c2cccc(-c3ccnc(NCC4CC4)c3)n2)c(C(=O)NCc2ccncn2)n1 [Example 47, 2′-((cyclopropylmethyl)amino)-N-(1-methyl-3-((pyrimidin-4-ylmethyl)carbamoyl)-1H-pyrazol-4-yl)-[2,4′-bipyridine]-6-carboxamide] | 4380
9 | Cn1cc(NC(=O)c2cccc(-c3ccnc(NCC4CC4)c3)n2)c(C(=O)NCc2nncs2)n1 [Example 48, N-(3-(((1,3,4-thiadiazol-2-yl)methyl)carbamoyl)-1-methyl-1H-pyrazol-4-yl)-2′-((cyclopropylmethyl)amino)-[2,4′-bipyridine]-6-carboxamide] | 2430
10 | CN1CCCC(CNC(=O)c2nn(C)cc2NC(=O)c2cccc(-c3ccnc(NCC4CC4)c3)n2)C1 (stereo not drawn) [Example 49, 2′-((cyclopropylmethyl)amino)-N-(1-methyl-3-(((1-methylpiperidin-3-yl)methyl)carbamoyl)-1H-pyrazol-4-yl)-[2,4′-bipyridine]-6-carboxamide] | 260
11 | Cn1cc(NC(=O)c2cccc(-c3ccnc(NCC4CC4)c3)n2)c(C(=O)NCCn2cccn2)n1 [Example 50, N-(3-((2-(1H-pyrazol-1-yl)ethyl)carbamoyl)-1-methyl-1H-pyrazol-4-yl)-2′-((cyclopropylmethyl)amino)-[2,4′-bipyridine]-6-carboxamide] | 2680
12 | Cn1cc(NC(=O)c2cccc(-c3ccnc(NCC4CC4)c3)n2)c(C(=O)NC2CCOC2)n1 (stereo not drawn) [Example 51, 2′-((cyclopropylmethyl)amino)-N-(1-methyl-3-((tetrahydrofuran-3-yl)carbamoyl)-1H-pyrazol-4-yl)-[2,4′-bipyridine]-6-carboxamide] | 2280
